CSCC[C@H](NC(C)=O)C(=O)O
solubility (mole fraction)
Conditions | 283.15 K | 288.15 K | 293.15 K | 298.15 K | 303.15 K | 308.15 K | 313.15 K | 318.15 K | 323.15 K
in 2-butanone | 0.0192 | 0.0243 | 0.0316 | 0.0408 | 0.0546 | 0.0764 | 0.112 | 0.135 | 0.18
in acetone | 0.0372 | 0.0524 | 0.0643 | 0.0899 | 0.118 | 0.154 | 0.195 | 0.231 | 0.283
in acetonitrile | 0.00684 | 0.00873 | 0.0119 | 0.0167 | 0.0238 | 0.0354 | 0.0549 | 0.0912 | 0.154
in dimethyl carbonate | 0.00222 | 0.00268 | 0.00369 | 0.00531 | 0.00614 | 0.00835 | 0.0109 | 0.0151 | 0.0216
in ethanol | 0.0966 | 0.121 | 0.145 | 0.163 | 0.186 | 0.222 | 0.285 | 0.343 | 0.409
in ethyl acetate | 0.00553 | 0.00645 | 0.00846 | 0.0101 | 0.0134 | 0.0169 | 0.022 | 0.0284 | 0.0399
in methyl acetate | 0.00709 | 0.00877 | 0.0113 | 0.015 | 0.0193 | 0.026 | 0.0358 | 0.052 | 0.0821
in n-butanol | 0.0531 | 0.0697 | 0.084 | 0.103 | 0.121 | 0.145 | 0.175 | 0.207 | 0.242
in n-butyl acetate | 0.00312 | 0.00346 | 0.00409 | 0.00536 | 0.00667 | 0.00833 | 0.0103 | 0.0137 | 0.0171
in n-pentanol | 0.0417 | 0.05 | 0.0609 | 0.0755 | 0.0901 | 0.113 | 0.14 | 0.167 | 0.212
in n-propanol | 0.0668 | 0.0825 | 0.099 | 0.127 | 0.158 | 0.191 | 0.237 | 0.281 | 0.327
in n-propyl acetate | 0.0037 | 0.00414 | 0.00487 | 0.00685 | 0.00834 | 0.0107 | 0.013 | 0.0171 | 0.021
